ChEMBL document CHEMBL2417475, “Synthesis and SAR studies of marine natural products ma'edamines A, B and their analogues” (Bioorg Med Chem Lett, 2013)

What was measured:
Type in all cases: functional, cell-based
SK-BR-3 = experiment: Antiproliferative activity against human estrogen receptor and progesterone receptor deficient SKBR3 cells expressing HER2 after 72 hrs by MTT assay; conditions: SK-BR-3, 72 h
T47D = experiment: Antiproliferative activity against human HER2 deficient T47D cells expressing estrogen receptor and progesterone receptor after 72 hrs by MTT assay
CAMA-1 = experiment: Antiproliferative activity against human progesterone receptor and HER2 deficient CAMA1 cells expressing estrogen receptor after 72 hrs by MTT assay; conditions: CAMA-1, 72 h

Row | SMILES | IC50 (SK-BR-3) [µM] | IC50 (T47D) [µM] | IC50 (CAMA-1) [µM]
1 | COc1ccc(Cc2nc(-c3cc(Br)c(O)c(Br)c3)cnc2Cl)cc1Br | > 10 | > 10 | > 10
2 | CN(C)CCCOc1c(Br)cc(-c2c[nH]c(=O)c(Cc3ccccc3)n2)cc1Br | 5.5 | 6.33 | 7.1
3 | CNCCCOc1c(Br)cc(-c2c[nH]c(=O)c(Cc3ccccc3)n2)cc1Br | > 10 | > 10 | > 10
4 | COc1ccc(Cc2nc(-c3cc(Br)c(OCCN(C)C)c(Br)c3)c[nH]c2=O)cc1Br | 5.73 | 5.67 | > 10
5 | CNCCOc1c(Br)cc(-c2c[nH]c(=O)c(Cc3ccc(OC)c(Br)c3)n2)cc1Br | 8.1 | 6.18 | > 10
6 | COc1ccc(Cc2nc(-c3cc(Cl)c(OCCCN(C)C)c(Cl)c3)c[nH]c2=O)cc1Cl | > 10 | > 10 | > 10
7 | CN(C)CCCOc1c(Br)cc(-c2c[nH]c(=O)c(Cc3c[nH]c4ccccc34)n2)cc1Br | 7 | 6.33 | > 10
8 | CNCCCOc1c(Br)cc(-c2c[nH]c(=O)c(Cc3c[nH]c4ccccc34)n2)cc1Br | 4.33 | 4 | 5.77
9 | CC(C)c1nc(-c2cc(Br)c(OCCCN(C)C)c(Br)c2)c[nH]c1=O | > 10 | > 10 | > 10
10 | COc1ccc(Cc2nc(-c3cc(Br)c(OCCCN4CCOCC4)c(Br)c3)c[nH]c2=O)cc1Br | > 10 | > 10 | > 10
11 | CCN(CC)CCCOc1c(Br)cc(-c2c[nH]c(=O)c(Cc3ccc(OC)c(Br)c3)n2)cc1Br | 6 | > 10 | 5.23
12 | COc1ccc(Cc2nc(-c3ccc(OCCCN4CCOCC4)cc3)c[nH]c2=O)cc1 | > 10 | > 10 | > 10
13 | COc1ccc(Cc2nc(-c3ccc(OCCCN(C)C)cc3)c[nH]c2=O)cc1 | > 10 | > 10 | > 10
14 | CN(C)CCCOc1c(Br)cc(-c2c[nH]c(=O)c(Cc3ccc(O)c(Br)c3)n2)cc1Br | 5.67 | 4.77 | 6.67
15 | COc1ccc(Cc2nc(-c3cc(Br)c(OCCCCN4CCOCC4)c(Br)c3)c[nH]c2=O)cc1Br | > 10 | > 10 | > 10
16 | COc1ccc(Cc2nc(-c3cc(Br)c(OCCCCN(C)C)c(Br)c3)c[nH]c2=O)cc1Br | > 10 | > 10 | > 10
17 | COc1ccc(Cc2nc(-c3ccc(OCCCCN(C)C)cc3)c[nH]c2=O)cc1 | > 10 | > 10 | > 10
18 | CN(C)CCCOc1ccc(-c2c[nH]c(=O)c(Cc3c[nH]c4ccccc34)n2)cc1 | > 20 |  | > 20
19 | CNCCCOc1ccc(-c2c[nH]c(=O)c(Cc3c[nH]c4ccccc34)n2)cc1 | > 20 |  | > 20
20 | O=c1[nH]cc(-c2ccccc2)nc1Cc1ccccc1 | > 10 | > 10 | > 10
21 | CS(=O)(=O)CCNCc1ccc(-c2ccc3ncnc(Nc4ccc(OCc5cccc(F)c5)c(Cl)c4)c3c2)o1 [LAPATINIB] | 5.05 | > 10 | > 10
22 | COc1ccc(Cc2nc(-c3cc(Br)c(OCCCN(C)C)c(Br)c3)c[nH]c2=O)cc1Br [Ma'edamine A] | > 10 | > 10 | > 10
23 | CNCCCOc1c(Br)cc(-c2c[nH]c(=O)c(Cc3ccc(OC)c(Br)c3)n2)cc1Br [Ma'edamine B] | 4 | 6 | 5.77
